pIC50: −log10 of the molar value. Where a name gives a salt, the structure may show the parent alone. Read-outs that look alike come from different tables or passages of the source.

The target of test [1] is T1, ERα (Homo sapiens, UniProt P03372).
T1 sequence (P03372 1-595): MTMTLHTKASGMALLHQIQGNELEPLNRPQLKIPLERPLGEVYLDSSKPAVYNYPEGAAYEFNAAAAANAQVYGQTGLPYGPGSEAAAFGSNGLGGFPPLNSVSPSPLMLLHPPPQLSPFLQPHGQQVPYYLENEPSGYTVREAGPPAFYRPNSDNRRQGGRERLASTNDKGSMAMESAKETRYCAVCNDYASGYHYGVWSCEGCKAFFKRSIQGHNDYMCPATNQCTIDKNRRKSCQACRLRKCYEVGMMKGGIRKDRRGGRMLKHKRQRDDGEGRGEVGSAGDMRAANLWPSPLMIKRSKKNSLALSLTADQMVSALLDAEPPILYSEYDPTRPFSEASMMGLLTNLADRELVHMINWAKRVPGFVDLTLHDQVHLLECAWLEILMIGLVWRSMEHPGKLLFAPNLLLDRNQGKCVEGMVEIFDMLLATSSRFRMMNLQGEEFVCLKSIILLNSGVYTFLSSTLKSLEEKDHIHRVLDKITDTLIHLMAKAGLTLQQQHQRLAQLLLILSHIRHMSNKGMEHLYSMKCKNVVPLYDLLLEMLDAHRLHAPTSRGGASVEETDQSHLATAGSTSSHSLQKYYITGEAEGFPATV
Nature of the test: Estrogen receptor-alpha (ERα) degradation assay in MCF7 cells using In-Cell Western assay. Details: assessed for their activity in degrading ERα in MCF-7 cells via western blot; endogenous in cells; host or cells: MCF7 cells. It is filed as cell-based. The note with it: ER-alpha degradation in MCF7 cells, 5 days of incubation. As to the method:
Estrogen Receptor-Alpha (ERα) Degradation Assay Using in-Cell Western™ Assay for Table 5.
Degradation of ERα by claimed compounds were determined in MCF7 cells using an In-Cell Western™ assay. Briefly, MCF7 cells were plated in 96-well plates (2000 cells per well in 100 μl media) and incubated at 37° C. under an atmosphere of 5% CO2 in a humidified incubator overnight. One-hundred (100) μI of media containing test compound (at 2x concentration) was added to the appropriate wells to provide 11 serially decreasing concentrations (top final concentration, 1 μM then 3-fold less for the next 10 concentrations); a vehicle control (DMSO) was also added for each compound. For each experiment, all compounds were assayed on duplicate plates. Cells were then incubated for 3 or 5 days in the above-mentioned environment. The assay was terminated by removal of media, a single wash with ice-cold PBS and the addition of 50 μl paraformaldehyde (PFA: 4% in PBS). After 15 minutes in PFA at room temperature, the cells were permeabilized in Tris-phosphate-buffered saline with Tween (0.1%) (TBST) supplemented with Triton X-100 (0.5%) for 15 minutes. Cells were then blocked in BSA (TBST with BSA, 3%) for one hour. Primary antibodies for the detection of ERa (rabbit monoclonal, 1:1000, Cell Signaling Technology Catalog #8644) and tubulin (mouse monoclonal, 1:5000, Sigma Catalog #T6074) in TBST with BSA (3%) were added. The cells were incubated overnight at 4° C. The cells were then washed thrice with TBST at room temperature and then incubated with anti-rabbit and anti-mouse fluorescently-labelled secondary antibodies (IRDye®; LI-COR; Lincoln, Nebr.) in LI-COR blocking buffer (Catalog #927-50000) for one hour at room temperature. Following 3 washes with TBST, the buffer was removed and the plates were read on an Odyssey® infrared imaging system (LI-COR®, Lincoln, Nebr.) at 700 nm and 800 nm. Using commercial software (ImageStudio™; LI-COR, Lincoln, Nebr.), the staining intensity for ERa and tubulin in each well was quantified and exported for analysis. For each data point, ERa intensity was normalized to tubulin intensity and for each compound all normalized intensity values were normalized to the vehicle control. DC50 and Dmax values were determined following a 4-parameter IC50 curve fit using ACAS dose response module (McNeil & Co Inc.).

The target of test [2] is T1, ERα. Description: ERE luciferase reporter gene assay in T47D-KBluc cells (target engagement). Format: cell-based. Details: T47D human breast cancer cells stably transfected with estrogen responsive element/promoter/luciferase reporter gene; host or cells: T47D-KBluc cells. The note with it: 10% FBS, 24 hours, read-out: ER-α Luciferase IC50. The gist of the method: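 PROTACs were tested at 12 concentrations from 300 nM down to 2 pM in 3-fold steps for 24 h on T47D-KBluc cells with a stable ERE-driven luciferase. Medium was RPMI with 10% FBS, measured at 10 pM estrogen. IC50 came from luminescence after lysis, in duplicate.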
Background: A reporter such as luciferase makes a cellular process visible.

Where [3] appears, read: Table 1 cereblon centric PROTACs.
Setting [4] is: Table 3 cereblon centric PROTACs.

What is called DC50 is the concentration giving 50% degradation. High values mean degradation only at high concentration, low ones degradation at low concentration. A word on the Dmax: it is the largest share of the target that was removed. The pIC50 is −log10 of the IC50, conventionally taken in molar units. At ERα [1], `O=C1CCC(N2Cc3cc(NCCCN4CCCN(CCOc5ccc(Oc6c(-c7ccc(Br)cc7)sc7cc(O)ccc67)cc5)CC4)ccc3C2=O)C(=O)N1` (stereo not drawn) [Compound 74, 3-(5-(3-(4-(2-(4-(2-(4-bromophenyl)-6-hydroxybenzo[b]thiophen-3-yloxy)phenoxy)ethyl)-1,4-diazepan-1-yl)propylamino)-1-oxoisoindolin-2-yl)piperidine-2,6-dione] came in with a DC50 of 1 to 10 nM and a Dmax greater than 75%. In addition, the pIC50 at ERα [2] (setting [3]) was 7.96.

With `O=C1CCC(N2Cc3cc(NCCCOCCCOCCOc4ccc(Oc5c(-c6ccc(Br)cc6)sc6cc(O)ccc56)cc4)ccc3C2=O)C(=O)N1` (stereo not drawn) [Compound 89, 3-[5-[3-[3-[2-[4-[2-(4bromophenyl)-6-hydroxy-benzothiophen-3-yl]oxyphenoxy]ethoxy]propoxy]propylamino]-1-oxo-isoindolin-2-yl]piperidine-2,6-dione], on ERα [1], the DC50 was in the range of 1 to 10 nM and the Dmax lay in the range of 50 to 75%. For the same molecule, the negative-log IC50 (pIC50) on ERα [2] (setting [3]) was 8.32.

For the molecule `O=C1CCC(N2Cc3cc(NCCCN4CCN(CCOc5ccc(Oc6c(-c7ccc(F)cc7)sc7cc(O)ccc67)cc5)CC4)ccc3C2=O)C(=O)N1` (stereo not drawn) [Compound 174, 3-[5-[3-[4-[2-[4-[2-(4-fluorophenyl)-6-hydroxy-benzothiophen-3-yl]oxyphenoxy]ethyl]piperazin-1-yl]propylamino]-1-oxo-isoindolin-2-yl]piperidine-2,6-dione], at ERα [1], the DC50 was less than 1 nM and the Dmax was greater than 75%. Besides, the pIC50 on ERα [2] (setting [4]) was 9.27.

On ERα [1], `O=C1CCC(N2C(=O)c3ccc(NCCCN4CCN(CCOc5ccc(Oc6c(-c7ccc(Br)cc7)sc7cc(O)ccc67)cc5)CC4)cc3C2=O)C(=O)N1` (stereo not drawn) [Compound 177, 5-[3-[4-[2-[4-[2-(4-bromophenyl)-6-hydroxy-benzothiophen-3-yl]oxyphenoxy]ethyl]piperazin-1-yl]propylamino]-2-(2,6-dioxo-3-piperidyl)isoindoline-1,3-dione] had a DC50 of 1 to 10 nM and a Dmax greater than 75%. Besides, the pIC50 at ERα [2] (setting [4]) was 8.64.

On ERα [1], `O=C1CCC(N2C(=O)c3ccc(NCCCN4CCCN(CCOc5ccc(Oc6c(-c7ccc(Br)cc7)sc7cc(O)ccc67)cc5)CC4)cc3C2=O)C(=O)N1` (stereo not drawn) [Compound 178, 5-[3-[4-[2-[4-[2-(4-bromophenyl)-6-hydroxy-benzothiophen-3-yl]oxyphenoxy]ethyl]-1,4-diazepan-1-yl]propylamino]-2-(2,6-dioxo-3-piperidyl)isoindoline-1,3-dione] gave a DC50 of 1 to 10 nM and a Dmax greater than 75%. Moreover, the pIC50 on ERα [2] (setting [4]) was 8.62.

For `O=C1CCC(N2Cc3cc(NCCCN4CCN(CCOc5ccc(Oc6c(-c7ccc(C(F)(F)F)cc7)sc7cc(O)ccc67)cc5)CC4)ccc3C2=O)C(=O)N1` (stereo not drawn) [Compound 179], at ERα [1], the DC50 lay within 1 to 10 nM and the Dmax is 50 to 75%. Besides, the pIC50 at ERα [2] (setting [4]) was 9.00.

Turning to `COc1ccc(-c2sc3cc(O)ccc3c2Oc2ccc(OCCN3CCN(CCCNc4ccc5c(c4)CN(C4CCC(=O)NC4=O)C5=O)CC3)cc2)cc1` (stereo not drawn) [Compound 180, 3-[5-[3-[4-[2-[4-[6-hydroxy-2-(4-methoxyphenyl)benzothiophen-3-yl]oxyphenoxy]ethyl]piperazin-1-yl]propylamino]-1-oxo-isoindolin-2-yl]piperidine-2,6-dione], at ERα [1], the DC50 was less than 1 nM and the Dmax was greater than 75%. The pIC50 at ERα [2] (setting [4]) is 9.66.

On ERα [1], `COc1ccc2c(Oc3ccc(OCCN4CCN(CCCNc5ccc6c(c5)CN(C5CCC(=O)NC5=O)C6=O)CC4)cc3)c(-c3ccc(O)cc3)sc2c1` (stereo not drawn) [Compound 181, 3-[5-[3-[4-[2-[4-[2-(4-hydroxyphenyl)-6-methoxy-benzothiophen-3-yl]oxyphenoxy]ethyl]piperazin-1-yl]propylamino]-1-oxo-isoindolin-2-yl]piperidine-2,6-dione] yielded a DC50 of 1 to 10 nM and a Dmax of 50 to 75%. Moreover, the pIC50 at ERα [2] (setting [4]) was 8.66.

At ERα [1], `O=C1CC[C@H](N2Cc3cc(CCN4CCCN(CCCCOc5ccc(Oc6c(-c7ccc(Br)cc7)sc7cc(O)ccc67)cc5)CC4)ccc3C2=O)C(=O)N1` [Compound 182, (3S)-3-[5-[2-[4-[4-[4-[2-(4-bromophenyl)-6-hydroxy-benzothiophen-3-yl]oxyphenoxy]butyl]-1,4-diazepan-1-yl]ethyl]-1-oxo-isoindolin-2-yl]piperidine-2,6-dione] had a DC50 of 1 to 10 nM and a Dmax greater than 75%. The pIC50 at ERα [2] (setting [4]) is 8.72.

On ERα [1], `O=C1CCC(N2C(=O)c3ccc(N4CCN(C5CCN(CCOc6ccc(Oc7c(-c8ccc(Br)cc8)sc8cc(O)ccc78)cc6)CC5)CC4)cc3C2=O)C(=O)N1` (stereo not drawn) [Compound 183, 5-[4-[1-[2-[4-[2-(4-bromophenyl)-6-hydroxy-benzothiophen-3-yl]oxyphenoxy]ethyl]-4-piperidyl]piperazin-1-yl]-2-(2,6-dioxo-3-piperidyl)isoindoline-1,3-dione] registered a DC50 of 10 to 100 nM and a Dmax of 50 to 75%. Besides, the pIC50 at ERα [2] (setting [4]) is 8.60.

On ERα [1], `O=C1CCC(N2C(=O)c3ccc(N4CCN(CC5CCN(CCOc6ccc(Oc7c(-c8ccc(Br)cc8)sc8cc(O)ccc78)cc6)CC5)CC4)cc3C2=O)C(=O)N1` (stereo not drawn) [Compound 184, 5-[4-[1-[2-[4-[2-(4-bromophenyl)-6-hydroxy-benzothiophen-3-yl]oxyphenoxy]ethyl]-4-piperidylmethyl]piperazin-1-yl]-2-(2,6-dioxo-3-piperidyl)isoindoline-1,3-dione] displayed a DC50 of 10 to 100 nM and a Dmax greater than 75%. The pIC50 at ERα [2] (setting [4]) was 7.88.

For the molecule `O=C1CCC(N2C(=O)c3ccc(N4CCN(CC5CN(CCOc6ccc(Oc7c(-c8ccc(Br)cc8)sc8cc(O)ccc78)cc6)C5)CC4)cc3C2=O)C(=O)N1` (stereo not drawn) [Compound 185, 5-[4-[[1-[2-[4-[2-(4-bromophenyl)-6-hydroxy-benzothiophen-3-yl]oxyphenoxy]ethyl]azetidin-3-yl]methyl]piperazin-1-yl]-2-(2,6-dioxo-3-piperidyl)isoindoline-1,3-dione], at ERα [1], the DC50 was in the range of 1 to 10 nM and the Dmax was 50 to 75%. In addition, on ERα [2] (setting [4]), the pIC50 is 8.35.

`O=C1CCC(N2C(=O)c3ccc(C4CCN(C5CCN(CCOc6ccc(Oc7c(-c8ccc(Br)cc8)sc8cc(O)ccc78)cc6)CC5)CC4)cc3C2=O)C(=O)N1` (stereo not drawn) [Compound 190, 5-(1′-(2-(4-((2-(4-bromophenyl)-6-hydroxybenzo[b]thiophen-3-yl)oxy)phenoxy)ethyl)-[1,4′-bipiperidin]-4-yl)-2-(2,6-dioxopiperidin-3-yl)isoindoline-1,3-dione Hydrochloride]: on ERα [1], the DC50 fell in the range of 1 to 10 nM and the Dmax fell in the range of 50 to 75%. Also, the negative-log IC50 (pIC50) on ERα [2] (setting [4]) is 7.94.

At ERα [1], `O=C1CCC(N2C(=O)c3ccc(N4CC(CN5CCCN(CCOc6ccc(Oc7c(-c8ccc(Br)cc8)sc8cc(O)ccc78)cc6)CC5)C4)cc3C2=O)C(=O)N1` (stereo not drawn) [Compound 191, 5-(3-((4-(2-(4-((2-(4-bromophenyl)-6-hydroxybenzo[b]thiophen-3-yl)oxy)phenoxy)ethyl)-1,4-diazepan-1-yl)methyl)azetidin-1-yl)-2-(2,6-dioxopiperidin-3-yl)isoindoline-1,3-dione] yielded a DC50 of 1 to 10 nM and a Dmax of 50 to 75%. In addition, the pIC50 on ERα [2] (setting [4]) is 8.74.

The values above are taken from patent US11384063B2, “Modulators of estrogen receptor proteolysis and associated methods of use” (Arvinas Operations, Inc., priority 2017, dated 2022).
